Reference: patent publication US4029805A, “Semisynthetic penicillins” (Hoffmann-La Roche Inc., priority 1976, dated 1977)
Counter-ions that a name gives are not always drawn. Like-named read-outs stand apart in the source and are kept apart here.

Tests used:
[1] = Stability in aqueous solution at room temperature, microbiological assay using B. subtilis; conditions: water
Protocol: To illustrate the relative stability of the compounds of this invention in aqueous solution at room temperature the sodium salts of the compounds were tested as 20% by weight aqueous solutions for activity by microbiological assay using B. subtilis as the test organism and compared to 10% and 20% aqueous solutions of amoxicillin sodium salt and 10% aqueous solution of the acetone derivative of amoxicillin.

physchem = assay type: physicochemical; conditions: 5% dextrose solution, read-out: antibacterial activity retained in a 24 hour period
Protocol: The antibacterial activity retained in a 24 hour period by the acetaldehyde derivative when dissolved in 5% dextrose solutions at 0.5 and 1.0% concentration is 83% and 80% respectively. The sodium salt of amoxicillin retains less than 40% activity under the same conditions.

S. aureus = test: Curative dose against systemic S. aureus infection; assay type: in vivo, mice; conditions: Staphylococcus aureus, in Mus musculus, read-out: CD50 (the source's name)
S. pyogenes = test: Curative dose against systemic S. pyogenes infection; assay type: in vivo, mice; conditions: Streptococcus pyogenes, in Mus musculus, read-out: CD50 (the source's name)
D. pneumoniae = test: Curative dose against systemic D. pneumoniae infection; assay type: in vivo, mice; conditions: Streptococcus pneumoniae, in Mus musculus, read-out: CD50 (the source's name)
E. coli [2] = test: Curative dose against systemic E. coli infection; assay type: in vivo, mice; conditions: Escherichia coli, in Mus musculus, po
Protocol: (§1) In order to illustrate the relative activity of the compounds of this invention as compared to amoxicillin, the compounds, represented by the acetaldehyde derivative, were tested orally against systemic bacterial infections of mice with the following results. The CD50 is the curative dose in 50% of the animals treated against a challenge organism.

K. pneumoniae = test: Curative dose against systemic K. pneumoniae infection; assay type: in vivo, mice; conditions: Klebsiella pneumoniae, in Mus musculus, read-out: CD50 (the source's name)
S. typhosa [3] = test: Curative dose against systemic S. typhosa infection; assay type: in vivo, mice; conditions: Mus musculus, po, read-out: CD50 (the source's name)
Protocol: as §1

S. schottmuelleri = test: Curative dose against systemic S. schottmuelleri infection; assay type: in vivo, mice; conditions: Mus musculus, read-out: CD50 (the source's name)
E. coli [4] = test: Curative dose against systemic E. coli infection; assay type: in vivo, mice; conditions: Escherichia coli, in Mus musculus, read-out: CD50 (the source's name)
S. typhosa [5] = test: Curative dose against systemic S. typhosa infection; assay type: in vivo, mice; conditions: Mus musculus, sc, read-out: CD50 (the source's name)
[6] = Table 3(b), po, acetaldehyde derivative comparison
[7] = Table 3(b), sc, acetaldehyde derivative comparison
[8] = Table 3(b), acetaldehyde derivative comparison
[9] = po, butyraldehyde derivative comparison
[10] = sc, butyraldehyde derivative comparison
[11] = butyraldehyde derivative comparison

## CC1N[C@H](c2ccc(O)cc2)C(=O)N1[C@@H]1C(=O)N2[C@@H]1SC(C)(C)[C@@H]2C(=O)O (stereo partly drawn) [Acetaldehyde derivative]
[1]
  remaining at 1 h: 100%
  remaining at 2 h: 99%
  remaining at 4 h: 99%
  remaining at 6 h: 98%
  remaining at 6.5 h: 98%
  remaining at 24 h: 94%
physchem; 0.5% concentration
  remaining at 24 h: 83%
physchem; 1.0% concentration
  remaining at 24 h: 80%
S. aureus; [6]
  ED50: 0.77 mg/kg
S. aureus; [7]
  ED50: 1.3 mg/kg
S. pyogenes; [6]
  ED50: 1.7 mg/kg
S. pyogenes; [7]
  ED50: < 0.05 mg/kg
D. pneumoniae; [6]
  ED50: 12 mg/kg
D. pneumoniae; [7]
  ED50: 0.76 mg/kg
E. coli [2]; Table 3(b), acetaldehyde derivative comparison, read-out: CD50 (the source's name)
  ED50: 4.6 mg/kg
E. coli [2]; read-out: CD50, Table 2, PO, mice
  ED50: 5 mg/kg
K. pneumoniae; [6]
  ED50: 17 mg/kg
K. pneumoniae; [7]
  ED50: 11 mg/kg
S. typhosa [3]; [8]
  ED50: 8.8 mg/kg
S. schottmuelleri; [6]
  ED50: 6.4 mg/kg
S. schottmuelleri; [7]
  ED50: 3.4 mg/kg
E. coli [4]; sc, Table 3(b), sc, acetaldehyde derivative comparison
  ED50: 6.9 mg/kg
S. typhosa [5]; [8]
  ED50: 6.5 mg/kg
In vivo; ip
  LD50: 9200 mg/kg
In vivo; po
  LD50: > 10000 mg/kg
In vivo; sc
  LD50: > 10000 mg/kg

## CCCC1N[C@H](c2ccc(O)cc2)C(=O)N1[C@@H]1C(=O)N2[C@@H]1SC(C)(C)[C@@H]2C(=O)O (stereo partly drawn) [Butyraldehyde derivative]
[1]
  remaining at 1 h: 95%
  remaining at 2 h: 83%
  remaining at 6 h: 83%
  remaining at 24 h: 70%
S. aureus; [9]
  ED50: 0.2 mg/kg
S. aureus; [10]
  ED50: 0.11 mg/kg
S. pyogenes; [9]
  ED50: < 0.05 mg/kg
S. pyogenes; [10]
  ED50: 0.01 mg/kg
D. pneumoniae; [9]
  ED50: 2.1 mg/kg
D. pneumoniae; [10]
  ED50: 2.5 mg/kg
K. pneumoniae; [9]
  ED50: 46 mg/kg
K. pneumoniae; [10]
  ED50: 16 mg/kg
S. typhosa [3]; [11]
  ED50: 2.9 mg/kg
S. schottmuelleri; [9]
  ED50: 5.7 mg/kg
S. schottmuelleri; [10]
  ED50: 3.2 mg/kg
E. coli [4]; [9]
  ED50: 12 mg/kg
E. coli [4]; [10]
  ED50: 3.9 mg/kg
S. typhosa [5]; [11]
  ED50: 0.85 mg/kg
In vivo; ip
  LD50: 7270 mg/kg
In vivo; po
  LD50: > 10000 mg/kg
In vivo; sc
  LD50: 10000 mg/kg

## CC1(C)S[C@@H]2[C@H](NC(=O)[C@H](N)c3ccc(O)cc3)C(=O)N2[C@H]1C(=O)O [Amoxicillin sodium salt]
[1]
  remaining at 1 h: 100%
  remaining at 2 h: 91%
  remaining at 4 h: 65%
  remaining at 6 h: 59%
  remaining at 6.5 h: 58%
  remaining at 24 h: 38%
physchem; 5% dextrose solutions, same conditions (0.5 and 1.0%)
  remaining at 24 h: < 40%
